Results reported in the supplement of paper PMC11061612.

What was measured:
Assay in all cases: combination Emax (second highest fraction inhibited in the dose matrix, 72 h); higher = more inhibition; extreme values may be limits of the assay
[1] = system: SK-N-DZ (Neuroblastoma)
How it was run: (§1)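 Bliss excess equals the observed combination effect minus the expected value EA + EB − EA·EB, where EA and EB are the effects of each agent alone. Combination Emax is the second-highest inhibition within the matrix. Inhibition was scaled from CellTiter-Glo 2.0 luminescence, with 0 set by vehicle wells and 1 by blank wells, after 72 hours of two-drug dosing of cells plated in 1536-well plates.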

[2] = system: NTERA-2-cl-D1 (Other Solid Carcinomas)
How it was run: as §1

[3] = system: DK-MG (Glioblastoma)
How it was run: as §1

[4] = system: HT-3 (Cervical Carcinoma)
How it was run: as §1

[5] = system: NCI-H835 (Other Solid Carcinomas)
How it was run: as §1

[6] = system: BC-1 (B-Cell Non-Hodgkin's Lymphoma)
How it was run: as §1

[7] = system: TK (B-Cell Non-Hodgkin's Lymphoma)
How it was run: as §1

[8] = system: HT-144 (Melanoma)
How it was run: as §1

[9] = system: NCI-H1435 (Non-Small Cell Lung Carcinoma)
How it was run: as §1

[10] = system: GCIY (Gastric Carcinoma)
How it was run: as §1

[11] = system: OVKATE (Ovarian Carcinoma)
How it was run: as §1

[12] = system: SBC-5 (Small Cell Lung Carcinoma)
How it was run: as §1

[13] = system: SK-MEL-24 (Melanoma)
How it was run: as §1

[14] = system: SW1463 (Colorectal Carcinoma)
How it was run: as §1

[15] = system: SCC90 (Head and Neck Carcinoma)
How it was run: as §1

[16] = system: MDA-MB-175-VII (Breast Carcinoma)
How it was run: as §1

[17] = system: C32 (Melanoma)
How it was run: as §1

[18] = system: NCI-H1048 (Small Cell Lung Carcinoma)
How it was run: as §1

[19] = system: C2BBe1 (Colorectal Carcinoma)
How it was run: as §1

[20] = system: NCI-H1975 (Lung Adenocarcinoma)
How it was run: as §1

| Compound | combination Emax [1] | combination Emax [2] | combination Emax [3] | combination Emax [4] | combination Emax [5] | combination Emax [6] | combination Emax [7] | combination Emax [8] | combination Emax [9] | combination Emax [10] | combination Emax [11] | combination Emax [12] | combination Emax [13] | combination Emax [14] | combination Emax [15] | combination Emax [16] | combination Emax [17] | combination Emax [18] | combination Emax [19] | combination Emax [20] |
| --- | --- | --- | --- | --- | --- | --- | --- | --- | --- | --- | --- | --- | --- | --- | --- | --- | --- | --- | --- | --- |
| NC1(C(=O)N[C@@H](CCO)c2ccc(Cl)cc2)CCN(c2ncnc3[nH]ccc23)CC1 [Capivasertib] + CCN(CCO)CCCOc1ccc2c(Nc3cc(CC(=O)Nc4cccc(F)c4)[nH]n3)ncnc2c1 [AZD2811] (first compound max 10 µM, 7x7, partner max 1 µM) | 0.619 | 0.481 | 0.484 | 0.104 | 0.535 | 0.872 | 0.231 | 0.764 | 0.248 | 0.504 | 0.309 | 0.383 | 0.626 | 0.319 | 0.867 | 0.683 | 0.54 | 0.784 | 0.301 | 0.611 |
| NC1(C(=O)N[C@@H](CCO)c2ccc(Cl)cc2)CCN(c2ncnc3[nH]ccc23)CC1 [Capivasertib] + COc1nnc2ccc(N3CCC(c4ccc(OCCN5CCN(C)C(=O)[C@H]5C)cc4)CC3)nn12 [AZD5153] (first compound max 10 µM, 7x7, partner max 1 µM) | 0.646 | 0.564 | 0.611 | 0.308 | 0.944 | 0.977 | 0.387 | 0.855 | 0.248 | 0.735 | 0.284 | 0.563 | 0.885 | 0.521 | 0.986 | 0.571 | 0.687 | 0.71 | 0.405 | 0.652 |
| NC1(C(=O)N[C@@H](CCO)c2ccc(Cl)cc2)CCN(c2ncnc3[nH]ccc23)CC1 [Capivasertib] + C[C@@H]1COCCN1C2=NC(=NC(=C2)C3(CC3)[S@](=N)(=O)C)C4=C5C=CNC5=NC=C4 [AZD6738] (first compound max 10 µM, 7x7, partner max 10 µM) | 0.983 | 0.477 | 0.494 | 0.575 | 0.456 | 0.94 | 0.871 | 0.88 | 0.26 | 0.751 | 0.265 | 0.7 | 0.688 | 0.42 | 0.804 | 0.683 | 0.631 | 0.667 | 0.445 | 0.669 |
| NC1(C(=O)N[C@@H](CCO)c2ccc(Cl)cc2)CCN(c2ncnc3[nH]ccc23)CC1 [Capivasertib] + Cn1cnc2c(F)c(Nc3ccc(Br)cc3Cl)c(C(=O)NOCCO)cc21 [Selumetinib] (first compound max 10 µM, 7x7, partner max 10 µM) | 0.405 | 0.321 | 0.621 | 0.281 | 0.41 | 0.829 | 0.0522 | 0.985 | 0.244 | 0.512 | 0.385 | 0.627 | 0.856 | 0.65 | 0.992 | 0.957 | 1 | 0.7 | 0.569 | 0.829 |
| COc1cccc2c1C(=O)c1c(O)c3c(c(O)c1C2=O)C[C@@](O)(C(=O)CO)C[C@@H]3O[C@H]1C[C@H](N)[C@H](O)[C@H](C)O1 [Doxorubicin] + Cc1cc2ncnn2cc1Nc1ncc2c(n1)n(C1CCOCC1)c(=O)n2C [AZD7648] (first compound max 1 µM, 7x7, partner max 10 µM) | 0.613 | 1 | 0.469 | 0.781 | 0.516 | 1 | 0.73 | 0.583 | 0.198 | 0.663 | 0.282 | 0.77 | 0.725 | 0.196 | 0.603 | 0.512 | 0.68 | 0.933 | 0.242 | 0.932 |
| CS(=O)(=O)CCNCc1ccc(-c2ccc3ncnc(Nc4ccc(OCc5cccc(F)c5)c(Cl)c4)c3c2)o1 [Lapatinib] + C[C@@H](Oc1cc(-c2cnn(C3CCNCC3)c2)cnc1N)c1c(Cl)ccc(F)c1Cl [Crizotinib] (first compound max 10 µM, 7x7, partner max 10 µM) | 0.899 | 0.957 | 0.925 | 0.234 | 0.459 | 0.959 | 0.701 | 0.998 | 0.871 | 0.882 | 0.391 | 0.832 | 0.967 | 0.802 | 0.946 | 1 | 0.7 | 0.525 | 0.745 | 0.631 |
| CC(=O)c1c(C)c2cnc(Nc3ccc(N4CCNCC4)cn3)nc2n(C2CCCC2)c1=O [Palbociclib] + CC1(C)CCC(CN2CCN(c3ccc(C(=O)NS(=O)(=O)c4ccc(NCC5CCOCC5)c([N+](=O)[O-])c4)c(Oc4cnc5[nH]ccc5c4)c3)CC2)=C(c2ccc(Cl)cc2)C1 [Venetoclax] (first compound max 10 µM, 7x7, partner max 1 µM) | 0.516 | 0.134 | 0.286 | 0.116 | 0.255 | 0.917 | 0.975 | 0.555 | 0.132 | 0.17 | 0.12 | 0.23 | 0.182 | 0.603 | 0.155 | 0.171 | 0.0845 | 0.287 | 0.111 | 0.423 |
| CC(=O)c1c(C)c2cnc(Nc3ccc(N4CCNCC4)cn3)nc2n(C2CCCC2)c1=O [Palbociclib] + Cc1c2c(nn1C)CSCc1cc(n(C)n1)CSc1cc(c3ccccc3c1)OCCCc1c(C(=O)O)n(C)c3c-2c(Cl)ccc13 [AZD5991] (first compound max 10 µM, 7x7, partner max 1 µM) | 0.55 | 0.509 | 0.366 | 0.693 | 0.416 | 1 | 0.266 | 0.972 | 0.171 | 0.2 | 0.208 | 0.443 | 0.283 | 0.58 | 0.965 | 0.249 | 0.254 | 0.65 | 0.229 | 0.321 |
| CC(=O)c1c(C)c2cnc(Nc3ccc(N4CCNCC4)cn3)nc2n(C2CCCC2)c1=O [Palbociclib] + Cn1cnc2c(F)c(Nc3ccc(Br)cc3Cl)c(C(=O)NOCCO)cc21 [Selumetinib] (first compound max 10 µM, 7x7, partner max 10 µM) | 0.61 | 0.249 | 0.435 | 0.138 | 0.133 | 0.91 | 0.196 | 0.896 | 0.147 | 0.416 | 0.219 | 0.251 | 0.654 | 0.646 | 0.726 | 0.389 | 0.959 | 0.0486 | 0.379 | 0.455 |
| COc1cccc(OCCCN)c1-c1cc(Nc2cnc(C#N)cn2)n[nH]1 [Prexasertib] + C=CCn1c(=O)c2cnc(Nc3ccc(N4CCN(C)CC4)cc3)nc2n1-c1cccc(C(C)(C)O)n1 [AZD1775] (first compound max 1 µM, partner max 1 µM) | 1 | 0.916 | 0.387 | 0.75 | 0.684 | 1 | 0.882 | 0.838 | 0.403 | 0.911 | 0.371 | 0.94 | 0.703 | 0.795 | 0.94 | 0.424 | 0.721 | 0.955 | 0.613 | 0.516 |
| COc1cccc(OCCCN)c1-c1cc(Nc2cnc(C#N)cn2)n[nH]1 [Prexasertib] + CCc1c2c(nc3ccc(O)cc13)-c1cc3c(c(=O)n1C2)COC(=O)[C@]3(O)CC [SN-38] (first compound max 1 µM, 7x7, partner max 0.3 µM) | 1 | 0.981 | 0.295 | 0.933 | 0.632 | 0.997 | 1 | 0.912 | 0.481 | 0.929 | 0.258 | 0.997 | 0.837 | 0.741 | 0.952 | 0.547 | 0.714 | 1 | 0.708 | 0.861 |
| COc1cccc(OCCCN)c1-c1cc(Nc2cnc(C#N)cn2)n[nH]1 [Prexasertib] + CN(C)CCCOc1ccc(-c2ccc3ncc4c(c3c2)n(C2CCOCC2)c(=O)n4C)cn1 [AZD0156] (first compound max 1 µM, 7x7, partner max 1 µM) | 1 | 0.227 | 0.32 | 0.453 | 0.366 | 0.984 | 0.918 | 0.744 | 0.365 | 0.853 | 0.275 | 0.886 | 0.624 | 0.716 | 0.737 | 0.327 | 0.774 | 0.685 | 0.582 | 0.291 |
| COc1cccc(OCCCN)c1-c1cc(Nc2cnc(C#N)cn2)n[nH]1 [Prexasertib] + C[C@@H]1COCCN1C2=NC(=NC(=C2)C3(CC3)[S@](=N)(=O)C)C4=C5C=CNC5=NC=C4 [AZD6738] (first compound max 1 µM, 7x7, partner max 10 µM) | 1 | 0.596 | 0.216 | 0.679 | 0.372 | 0.996 | 0.901 | 0.853 | 0.283 | 0.911 | 0.337 | 0.938 | 0.646 | 0.704 | 0.679 | 0.398 | 0.735 | 0.694 | 0.556 | 0.426 |
